Laboratory results: the supplement of paper PMC10307832

The cell lines below were run with Cc1ccc(NC(=O)c2ccc(CN3CCN(C)CC3)cc2)cc1Nc1nc(-c2cccnc2)cs1 [Masitinib] + CS(=O)(=O)N1CCN(Cc2cc3nc(-c4cccc5[nH]ncc45)nc(N4CCOCC4)c3s2)CC1 [Pictilisib] (partner 1 µM) (assay: relative viability (nuclei count vs DMSO), 5 days (fraction); higher = more cells survive). Details: first compound 0.1 µM.
Summary of the method: (§1)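 Dosing by pin tool came one day after lung cancer cell lines were seeded in 1536-well plates, using either one drug or a fixed anchor-drug dose plus five library-drug doses (not always all listed) in √10 steps. After 5 days, nuclei were counted on 4× images. Relative viability is treated-well nuclei count divided by vehicle-well nuclei count, and values are medians of duplicate plates.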
With COR-L23 the relative viability was 0.844. Work on COR-L 105 yielded a relative viability of 0.395. For IA-LM, the relative viability was 0.353. Cell Line A549 has a relative viability of 0.478. Cell Line NCI-H2023 has a relative viability of 0.286. NCI-H520 gave a relative viability of 0.366. Work on SW 1573 yielded a relative viability of 0.478. In the case of NCI-H1299, the relative viability is reported as 0.81. Work on CAL-12T yielded a relative viability of 0.694. NCI-H1563 was tested, and the relative viability was 0.647. Work on NCI-H1650 yielded a relative viability of 0.583. SK-LU-1 showed a relative viability of 0.643. In the case of SK-MES-1, the relative viability is reported as 0.406. Cell Line NCI-H661 has a relative viability of 0.511.

Same assay, conditions: first compound 0.3162 µM
For EBC-1, the relative viability was 0.309. Work on NCI-H2009 yielded a relative viability of 0.923. NCI-H2228 gave a relative viability of 0.236. Calu-6 showed a relative viability of 0.988. With NCI-H1703 the relative viability was 0.203. COR-L23 gave a relative viability of 0.932. COR-L 105 gave a relative viability of 0.412. IA-LM was tested, and the relative viability was 0.455. Cell Line A549 has a relative viability of 0.576. With NCI-H2023 the relative viability was 0.191. NCI-H520 was tested, and the relative viability was 0.313. SW 1573 gave a relative viability of 0.472. In the case of NCI-H1299, the relative viability is reported as 0.947. CAL-12T gave a relative viability of 0.392. With NCI-H1563 the relative viability was 0.665. In the case of NCI-H1650, the relative viability is reported as 0.548. SK-LU-1 gave a relative viability of 0.549. SK-MES-1 gave a relative viability of 0.332. With NCI-H661 the relative viability was 0.371.

Same assay, conditions: first compound 1 µM
Cell Line EBC-1 has a relative viability of 0.413. For NCI-H2009, the relative viability was 0.793. Work on NCI-H2228 yielded a relative viability of 0.392. With Calu-6 the relative viability was 0.861. In the case of NCI-H1703, the relative viability is reported as 0.201. COR-L23 was tested, and the relative viability was 0.893. Work on COR-L 105 yielded a relative viability of 0.428. IA-LM gave a relative viability of 0.418. With A549 the relative viability was 0.566. NCI-H2023 gave a relative viability of 0.243. NCI-H520 showed a relative viability of 0.271. With SW 1573 the relative viability was 0.452. NCI-H1299 was tested, and the relative viability was 0.736. CAL-12T was tested, and the relative viability was 0.293. NCI-H1563 showed a relative viability of 0.676. With NCI-H1650 the relative viability was 0.535. SK-LU-1 showed a relative viability of 0.518. For SK-MES-1, the relative viability was 0.371. In the case of NCI-H661, the relative viability is reported as 0.346.

Each cell line was assayed with Cc1ccc(NC(=O)c2ccc(CN3CCN(C)CC3)cc2)cc1Nc1nc(-c2cccnc2)cs1 [Masitinib] + NC(=O)Nc1cc(-c2cccc(F)c2)sc1C(=O)N[C@H]1CCCNC1 [AZD7762] (partner 0.2 µM) in the same assay as above. Details: first compound 0.01 µM.
Summary of the method: as §1
Work on NCI-H522 yielded a relative viability of 0.892. In the case of NCI-H1703, the relative viability is reported as 0.113. NCI-H2342 was tested, and the relative viability was 0.51. SW 900 showed a relative viability of 0.664. Cell Line CAL-12T has a relative viability of 0.586.

Same assay, conditions: first compound 0.03162 µM
NCI-H522 gave a relative viability of 0.874. Cell Line NCI-H1703 has a relative viability of 0.158. Cell Line NCI-H2342 has a relative viability of 0.402. Work on SW 900 yielded a relative viability of 0.548. Cell Line CAL-12T has a relative viability of 0.639.

Same assay, conditions: first compound 0.1 µM
With NCI-H522 the relative viability was 0.894. NCI-H1703 was tested, and the relative viability was 0.102. NCI-H2342 was tested, and the relative viability was 0.427. SW 900 was tested, and the relative viability was 0.568. In the case of CAL-12T, the relative viability is reported as 0.606.

Same assay, conditions: first compound 0.3162 µM
NCI-H522 showed a relative viability of 0.643. For NCI-H1703, the relative viability was 0.121. NCI-H2342 gave a relative viability of 0.508. Work on SW 900 yielded a relative viability of 0.574. With CAL-12T the relative viability was 0.605.

Same assay, conditions: first compound 1 µM
NCI-H522 was tested, and the relative viability was 0.795. NCI-H1703 showed a relative viability of 0.106. For NCI-H2342, the relative viability was 0.456. SW 900 showed a relative viability of 0.576. With CAL-12T the relative viability was 0.498.

The cell lines below were run with Cc1ccc(NC(=O)c2ccc(CN3CCN(C)CC3)cc2)cc1Nc1nc(-c2cccnc2)cs1 [Masitinib] + Nc1ncn([C@H]2C[C@H](O)[C@@H](CO)O2)c(=O)n1 [Decitabine] (partner 2 µM) in the same assay as above. Details: first compound 0.01 µM.
Summary of the method: as §1
For NCI-H522, the relative viability was 0.707. NCI-H2009 was tested, and the relative viability was 0.368. NCI-H2342 was tested, and the relative viability was 0.724. For COR-L23, the relative viability was 0.388. COR-L 105 was tested, and the relative viability was 0.617. Cell Line A549 has a relative viability of 0.249. Work on SW 900 yielded a relative viability of 0.349. NCI-H2023 showed a relative viability of 0.205. Cell Line NCI-H520 has a relative viability of 0.482. For SW 1573, the relative viability was 0.492. NCI-H1650 gave a relative viability of 0.438. With SK-LU-1 the relative viability was 0.569. SK-MES-1 showed a relative viability of 0.329. Work on NCI-H661 yielded a relative viability of 0.502.

Same assay, conditions: first compound 0.03162 µM
Work on NCI-H522 yielded a relative viability of 0.897. In the case of NCI-H2009, the relative viability is reported as 0.332. Cell Line NCI-H2342 has a relative viability of 0.648. For COR-L23, the relative viability was 0.412. COR-L 105 was tested, and the relative viability was 0.658. With A549 the relative viability was 0.251. Work on SW 900 yielded a relative viability of 0.438. For NCI-H2023, the relative viability was 0.271. With NCI-H520 the relative viability was 0.482. In the case of SW 1573, the relative viability is reported as 0.537. For NCI-H1650, the relative viability was 0.391. SK-LU-1 showed a relative viability of 0.526. With SK-MES-1 the relative viability was 0.399. For NCI-H661, the relative viability was 0.552.

Same assay, conditions: first compound 0.1 µM
Cell Line NCI-H522 has a relative viability of 0.8. Cell Line NCI-H2009 has a relative viability of 0.409. With NCI-H2342 the relative viability was 0.683. Work on COR-L23 yielded a relative viability of 0.463. COR-L 105 gave a relative viability of 0.619. Cell Line A549 has a relative viability of 0.219. SW 900 gave a relative viability of 0.452. Work on NCI-H2023 yielded a relative viability of 0.327. With NCI-H520 the relative viability was 0.513. For SW 1573, the relative viability was 0.535. With NCI-H1650 the relative viability was 0.411. Cell Line SK-LU-1 has a relative viability of 0.725. In the case of SK-MES-1, the relative viability is reported as 0.376. NCI-H661 was tested, and the relative viability was 0.515.

Same assay, conditions: first compound 0.3162 µM
In the case of NCI-H522, the relative viability is reported as 0.696. In the case of NCI-H2009, the relative viability is reported as 0.406. Work on NCI-H2342 yielded a relative viability of 0.79. COR-L23 gave a relative viability of 0.329. In the case of COR-L 105, the relative viability is reported as 0.61. A549 gave a relative viability of 0.433. SW 900 showed a relative viability of 0.519. NCI-H2023 was tested, and the relative viability was 0.195. Cell Line NCI-H520 has a relative viability of 0.59. Cell Line SW 1573 has a relative viability of 0.51. NCI-H1650 gave a relative viability of 0.493. Work on SK-LU-1 yielded a relative viability of 0.594. Cell Line SK-MES-1 has a relative viability of 0.39. NCI-H661 was tested, and the relative viability was 0.535.

Same assay, conditions: first compound 1 µM
With NCI-H522 the relative viability was 0.646. NCI-H2009 showed a relative viability of 0.371. NCI-H2342 showed a relative viability of 0.833. COR-L23 gave a relative viability of 0.359. COR-L 105 showed a relative viability of 0.639. With A549 the relative viability was 0.278. SW 900 was tested, and the relative viability was 0.442. Cell Line NCI-H2023 has a relative viability of 0.187. Cell Line NCI-H520 has a relative viability of 0.437. Work on SW 1573 yielded a relative viability of 0.471. Work on NCI-H1650 yielded a relative viability of 0.345. Work on SK-LU-1 yielded a relative viability of 0.646. SK-MES-1 gave a relative viability of 0.337. NCI-H661 gave a relative viability of 0.545.
